Measured values reported in patent US10398142B2, “Polycationic amphiphiles as antimicrobial agents” (priority 2013, dated 2019).
Read-outs that look alike come from different tables or passages of the source. Marks after values point to notes of the source that are not given here.

Key:
[1] = test system: CA-MRSA (USA300-0114) biofilms; assay: Minimum biofilm eradication concentration (MBEC), regrowth assay; type: cell-based, Staphylococcus aureus; conditions: Table 5; for MBEC CA-MRSA: USA300-0114
Procedure: (§1) A regrowth assay was used to establish the MBEC of a compound to evaluate the antibiofilm activity. See also H. Ceri, M. Olson, D. Morck, D. Storey, R. Read, A. Buret, B. Olson, Methods Enzymol. 2001, 337, 377.
(§2) Different biological assays were performed. For all biological assays, laboratory strains of methicillin-susceptible Staphylococcus aureus MSSA (SH1000), Enterococcus faecalis (OG1RF), Escherichia coli (MC4100), Pseudomonas aeruginosa (PAO1), community-acquired methicillin-resistant Staphylococcus aureus CA-MRSA (USA300-0114), and hospital-acquired methicillin-resistant Staphylococcus aureus HA-MRSA (ATCC 33591) were grown at 37° C. overnight from freezer stocks in 10 mL of the media indicated for each assay. All cultures, with the exception of E. faecalis, were grown with shaking at 250 rpm.
(§3) Minimum biofilm eradication concentration (MBEC) was also measured. To each well of a flat-bottomed 96-well plate (Corning 3370), 8 μL of overnight bacterial culture was brought to a volume of 200 μL with fresh media (BHI for S. aureus and MRSA, Todd Hewitt (TH) for E. faecalis). Plates were incubated statically for 24 hours at 37° C. to establish biofilms. After 24 hours, the wells were carefully emptied by inverting the plate and gently shaking. A pre-mixed solution of media and aqueous compound stock solution was added to each well and plates were incubated at 37° C. 16 hours after pre-established biofilms were treated with compound, the media from each well was removed, biofilms were washed three times with 200 μL PBS to remove planktonic cells, and biofilms were incubated overnight at 37° C. in 200 μL of fresh media to allow any viable cells to continue growing. The wells were then vigorously pipetted to resuspend the biofilm cells and the OD at 595 nm was measured using a plate reader (POLARstar Omega, BMG Labtech). Biofilms reaching a final OD of less than 0.1 were considered eradicated and the lowest concentration of antibiotic corresponded to the MBEC. Four replicates were completed for each concentration of compound as well as positive and negative controls.

CA-MRSA (USA300-0114) = assay: Minimum inhibitory concentration (MIC), broth microdilution; type: cell-based, Staphylococcus aureus; conditions: for MIC: Table 4, USA300-0114, read-out: MIC CA-MRSA
Procedure: (§4) Different biological assays were performed. […] All cultures, with the exception of E. faecalis, were grown with shaking at 250 rpm.
(§5) Minimum inhibitory concentration (MIC) values against bacteria were measured using standard method. Compounds were serially diluted two-fold from an aqueous stock solution to yield twelve test concentrations. Overnight S. aureus, E. faecalis, E. coli, P. aeruginosa, CA-MRSA, and HA-MRSA cultures diluted to ca. 10^6 cfu/mL in Mueller-Hinton media and 100 μL were inoculated into each well of a U-bottom 96-well plate (BD Biosciences, BD351177) containing 100 μL of compound solution. Plates were incubated statically at 37° C. for 72 hours upon which time wells were evaluated visually for bacterial growth. The MIC was determined as the lowest concentration of compound resulting in no bacterial growth visible to the naked eye, based on the majority of three independent experiments. Positive and negative aqueous and media controls were conducted for each trial.

HA-MRSA (ATCC 33591) = assay: as above; type: cell-based, Staphylococcus aureus; conditions: Table 4, ATCC 33591, read-out: MIC HA-MRSA
Procedure: as §4, §5

E. faecalis biofilms = assay: Minimum biofilm eradication concentration (MBEC), regrowth assay; type: cell-based, Enterococcus faecalis
Description: as §1
(§6) Encouraged by the potency of the QACs against planktonic bacterial cells, the inventors then evaluated the efficacy of compound (12,2,12) against Staphylococcus aureus and Enterococcus faecalis biofilms. […] To both accurately evaluate the antibiofilm activity, a regrowth assay was utilized to establish the minimum biofilm eradication concentration (MBEC) of each compound.
as §2, §3

[2] = test system: red blood cells (defibrinated sheep blood); assay: Hemolysis assay (Lysis20); conditions: for Lysis20: Table 4, concentration at which less than 20% of red blood cells are lysed
Procedure: Hemolysis assays (Lysis20) were performed according to the procedure detailed in Peng, L., DeSousa, J., Su, Z., Novak, B. M., Nevzorov, A. A., Garland, E. R., and Melander, C., Inhibition of Acinetobacter baumannii biofilm formation on a methacrylate polymer containing a 2-aminoimidazole subunit, Chem. Comm. 2011, 47, 4896-4898. Defibrinated sheep blood was purchased from Hemostat Labs (DSB 100). Compounds representative of each class were serially diluted in sterile PBS from aqueous stock solutions and incubated with resuspended blood cells. The OD of the final suspensions were measured directly using plate reader. TritonX (1% by volume) served as a positive control (100% lysis marker) and sterile PBS served as a negative control (0% lysis marker).
Lysis20 indicates the concentration of compound (in μM) at which less than 20% of red blood cells are lysed.

[3] = test system: Staphylococcus aureus MSSA (SH1000); assay: Minimum inhibitory concentration (MIC), broth microdilution; type: cell-based
Procedure: (§7) The term “minimum inhibitory concentration (MIC)” means the lowest concentration of an antimicrobial agent that will inhibit the visible growth of a microorganism after overnight incubation. MIC values against bacteria, for example, the Gram-positive Staphylococcus aureus and Enterococcus faecalis and the Gram-negative Escherichia coli and Pseudomonas aeruginosa were determined by standard methods.
(§8) With nearly three-dozen amphiphiles varying in structure and cationic nature synthesized, minimum inhibitory concentration (MIC) values against the Gram-positive Staphylococcus aureus and Enterococcus faecalis and the Gram-negative Escherichia coli and Pseudomonas aeruginosa were determined by standard methods. […] The commercially available antibacterial agent benzalkonium chloride (benzyldimethyldodecylammonium chloride, Bn,12) was tested for comparison. The broth microdilution for determining MIC values was performed as previously reported.
as §4, §5

[4] = test system: S. aureus (MSSA, SH1000) biofilms; assay: Minimum biofilm eradication concentration (MBEC), regrowth assay; type: cell-based, Staphylococcus aureus; conditions: for MBEC MSSA: Table 5, SH1000
Description: as §1, §6, §2, §3

[5] = test system: Pseudomonas aeruginosa (PAO1); assay: Minimum inhibitory concentration (MIC), broth microdilution; type: cell-based; conditions: read-out: MIC P. aeruginosa
Procedure: as §7, §8, §4, §5

[6] = test system: Enterococcus faecalis (OG1RF); assay: as above; type: cell-based; conditions: read-out: MIC E. faecalis
Procedure: as §7, §8, §4, §5

[7] = test system: Escherichia coli (MC4100); assay: as above; type: cell-based; conditions: read-out: MIC E. coli
Procedure: as §7, §8, §4, §5

[8] = Table 4, SH1000, read-out: MIC MSSA
[9] = Table 3, read-out: MIC S. aureus
[10] = Table 2, pre-established biofilm, ± values varied between 50 and 100 μM for the six trials

SMILES	MBEC CA-MRSA [1] [µM]	MIC (CA-MRSA (USA300-0114)) [µM]	MIC (HA-MRSA (ATCC 33591)) [µM]	MBEC E. faecalis (E. faecalis biofilms; Table 5) [µM]	Lysis20 [2] [µM]	MIC [3, 8] [µM]	MBEC MSSA [4] [µM]	MIC ([5]; Table 3) [µM]	MIC [3, 9] [µM]	MIC ([6]; Table 3) [µM]	MIC ([7]; Table 3) [µM]	further results
CCCCCCCCCCCCCCCC[n+]1ccccc1.[Cl-] [Pyr,16, reference compound]	200	16	1	50	8	0.5	50	–	–	–	–	decrease in efficacy against MRSA biofilms compared to MSSA ([1]; MBEC): four-fold decrease in efficacy; potency against CA-MRSA strain possessing qacA/R (in words) (CA-MRSA (USA300-0114); compared with MSSA): decreased potency
C=CC[N+](C)(CCC[N+](C)(C)CCCCCCCCCCCC)CCC[N+](C)(C)CCCCCCCCCCCC.[Br-].[Br-].[Br-] [12,3,3A,3,12]	100	1	1	75 ± 25	8	1	50	4	1	2	2	–
CCCCCCCCCCCC[n+]1cccc(-c2ccc[n+](Cc3ccccc3)c2)c1.[Br-].[Br-] [MQ-12,Bn]	>200	16	16	>200	125	8	>200	–	–	–	–	prokaryotic selectivity (lytic profile vs MIC, in words) [2]: highest prokaryotic selectivity
CCCCCCCCCC[N+](C)(C)CCCN(C)CCC[N+](C)(C)CCCCCCCCCC [10,3,0,3,10]	150 ± 50	–	–	50	32	–	150 ± 50	–	–	–	–	MIC (CA-MRSA (USA300-0114); Staphylococcus aureus): 2 µM; MIC (HA-MRSA (ATCC 33591); Staphylococcus aureus): 2 µM; prokaryotic selectivity (lytic profile vs MIC, in words) ([2]; among the multiQACs evaluated): highest prokaryotic selectivity; MIC ([3]; Staphylococcus aureus, MSSA, Table 4, SH1000, read-out: MIC MSSA): 1 µM
C=CC[N+](C)(CC[N+](C)(C)CCCCCCCCCCCC)CC[N+](C)(C)CCCCCCCCCCCC.[Br-].[Br-].[Br-] [12,2,3A,2,12]	100	1	1	75 ± 25	2	2	50	4	2	2	2	–
CCCCCCCCCCCC[N+](C)(C)CCCCC[N+](C)(C)CCCCCCCCCCCC.[Br-].[Br-] [12,5,12]	100	1	0.5	100	8	2	50	2	2	1	1	MBEC E. faecalis (E. faecalis biofilms; [10]): 75 ± 25^a μM; MIC ([5]; Table 1): 4 µM; MIC ([3]; Table 1, read-out: MIC S. aureus): 1 µM; MIC ([6]; Table 1): 1 µM; MIC ([7]; Table 1): 1 µM; MBEC S. aureus [4, 10]: 75 ± 25^a μM
CCCCCCCCCCCC[n+]1ccc(-c2cc[n+](CCCCCCCCCCCC)cc2)cc1.[Br-].[Br-] [PQ-12,12]	100	1	0.5	200	8	1	200	–	–	–	–	–
